Patent US20070066546A1, “Compositions for the reversible thioesterification of signaling proteins and methods of using same” (priority 2005, published 2007)

Experiments:
[1] = tested on: mouse embryonic fibroblast; settings: cited from earlier work
OxyR = OxyR (Escherichia coli, UniProt P0ACQ4); assay: In vitro transcription and primer extension with avicin-modified OxyR (katG and oxyS templates); assay type: biochemical, E. coli; settings: for relative potency as activator of OxyR (in vitro transcriptional activity): comparison between F094, avicin D and avicin G; for OxyR activation as assessed by in vitro transcriptional activation of katG and oxyS: reduced OxyR, strictly anaerobic conditions, avicins:OxyR 1:10-100:1
Chain of OxyR (P0ACQ4 whole entry): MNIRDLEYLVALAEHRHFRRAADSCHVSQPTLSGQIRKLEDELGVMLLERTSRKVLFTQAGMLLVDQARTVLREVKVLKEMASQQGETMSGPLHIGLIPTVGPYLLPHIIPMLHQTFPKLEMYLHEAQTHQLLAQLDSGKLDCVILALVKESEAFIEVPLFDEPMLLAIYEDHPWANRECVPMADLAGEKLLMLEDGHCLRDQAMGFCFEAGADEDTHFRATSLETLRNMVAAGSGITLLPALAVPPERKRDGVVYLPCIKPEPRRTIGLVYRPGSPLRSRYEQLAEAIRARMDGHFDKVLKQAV
Description: Reduction of OxyR. The reduced form of OxyR was generated by addition of a large excess of DTT (200 mM) for 1 h, followed by exhaustive dialysis (25 mM potassium phosphate/250 mM potassiumsulfate/1 mM magnesium sulfate/100 μM DTPA, pH 8) in an anaerobic glove box. Removal of DTT was monitored by the color change after addition of 5,5′-dithionitrobenzoic acid to an aliquot of the dialysis buffer.
Treatment of OxyR with Avicins. Reduced OxyR was treated with a 10-fold molar excess of F094 or purified avicin D or G to generate avicin-modified OxyR. The reaction was performed under anaerobic conditions for 1 h, followed by dialysis.
In Vitro Transcription and Primer Extension. In vitro transcription with the various modified forms of OxyR was performed as described (Kim, S. O., et al. (2002) Cell 109, 383-396). Plasmid pBT22 was used as the katG template and pUCOXYS, a plasmid containing the oxyS-coding region cloned into pUC19, was used as the oxyS template. Where indicated, avicin-modified forms of OxyR were reduced with 200 mM DTT. Primer extension assays were performed by using AMV reverse transcriptase (Promega), according to instructions supplied by the manufacturer.
Avicin modified OxyR was incubated with plasmids containing the katG or oxyS genes followed by primer extension (see Materials and Methods). After primer extension, samples were untreated or treated with DTT before gel analysis. Band intensities were quantified (phosphoimager), and data are plotted at top as percent maximal activation (n=2-3). At bottom, corresponding raw data from an individual experiment are depicted.

[2] = tested on: E. coli strain RK4936 (wild-type); assay: Hydroperoxidase I (HPI) assay in crude extracts of treated wild-type bacteria; assay type: cell-based; settings: wild-type cells, 100 μM, 60 min
Description: (§1) Hydroperoxidase I (HPI) Assay. The peroxidase activity of HPI was measured as described (Hausladen, A. et al. (1996) Cell 86, 719-729), in 50 mM potassium phosphate buffer (pH 7.5) containing 0.1 mM EDTA, 10 mM H2O2, and 0.2 mg/ml o-dianisidine, by measuring the increase in absorbance at 460 nm (Clairborne, A. & Fridovich, I. (1979) Biochemistry 18, 2324-2329). An extinction coefficient of 11.3 mM^−1 cm^−1 was used to calculate the specific activity of HPI ((1993) in Worthington Enzyme Manual: Peroxidase, ed. Worthington, V. (Worthington Biochemical Corporation, Freehold, N.J.)).
(§2) HPI, the enzyme encoded by the katG gene, protects bacterial cells against hydrogen peroxide-induced stress. E. coli strains RK4936 (wild-type) and TA4112 (OxyR-null) were grown aerobically to an A600 of 0.5 and then treated with 100 μM F094 or avicin D or G for 60 min. Cells were harvested by centrifugation, and the peroxidase activity in crude extracts was determined (see Materials and Methods). Wild-type (RK4936) and OxyR-null (TA4112) strains of bacteria were treated with avicins and assayed for HPI activity.

[3] = tested on: E. coli strain TA4112 (OxyR-null); assay: Hydroperoxidase I (HPI) assay in crude extracts of treated OxyR-null bacteria; assay type: cell-based; settings: OxyR-null cells, 100 μM, 60 min
Description: as §1, §2

SMILES	decrease in cyclin D1 protein levels ([1]; NAC treatment)	increase in p27 protein levels ([1]; NAC treatment)	increase in intracellular low-molecular-weight thiols ([1]; treatment for 12 h)	relative potency as activator of OxyR (in vitro transcriptional activity) (OxyR)	OxyR activation as assessed by in vitro transcriptional activation of katG and oxyS (OxyR)	HPI activity [2]	HPI activity [3]
CC(=O)N[C@@H](CS)C(=O)O [NAC, N-acetyl-L-cysteine]	70%	3-4 fold	6 fold	–	–	–	–
C=C[C@](C)(O)CC/C=C(\C)C(=O)O[C@H]1[C@H](O)[C@@H](O)[C@H](O[C@@](C)(C=C)CC/C=C(\CO)C(=O)O[C@H]2C[C@]3(C(=O)O[C@@H]4O[C@H](CO)[C@@H](O)[C@H](O)[C@H]4O[C@@H]4O[C@@H](C)[C@H](O[C@@H]5O[C@@H](CO)[C@H](O)[C@H]5O)[C@@H](O[C@@H]5O[C@H](CO)[C@@H](O)[C@H](O)[C@H]5O)[C@H]4O)[C@H](O)C[C@]4(C)C(=CC[C@@H]5[C@@]6(C)CC[C@H](O[C@@H]7O[C@H](CO[C@@H]8O[C@H](C)[C@H](O)[C@H](O)[C@H]8O[C@@H]8OC[C@@H](O)[C@H](O)[C@H]8O)[C@@H](O)[C@H](O)[C@H]7NC(C)=O)C(C)(C)[C@@H]6CC[C@]54C)[C@@H]3CC2(C)C)O[C@@H]1C [avicin G]	–	–	–	lower	resulted in OxyR activation	doubled HPI activity	no increase in activity
C=C[C@](C)(O)CC/C=C(\CO)C(=O)O[C@H]1[C@H](O)[C@@H](O)[C@H](O[C@@](C)(C=C)CC/C=C(\CO)C(=O)O[C@H]2C[C@]3(C(=O)O[C@@H]4O[C@H](CO)[C@@H](O)[C@H](O)[C@H]4O[C@@H]4O[C@@H](C)[C@H](O[C@@H]5O[C@@H](CO)[C@H](O)[C@H]5O)[C@@H](O[C@@H]5O[C@H](CO)[C@@H](O)[C@H](O)[C@H]5O)[C@H]4O)[C@H](O)C[C@]4(C)C(=CC[C@@H]5[C@@]6(C)CC[C@H](O[C@@H]7O[C@H](CO[C@@H]8O[C@H](C)[C@H](O)[C@H](O)[C@H]8O[C@@H]8OC[C@@H](O)[C@H](O)[C@H]8O)[C@@H](O)[C@H](O)[C@H]7NC(C)=O)C(C)(C)[C@@H]6CC[C@]54C)[C@@H]3CC2(C)C)O[C@@H]1C [avicin D]	–	–	–	more potent activators than avicin G	resulted in OxyR activation	doubled HPI activity	no increase in activity
